In ChEMBL document CHEMBL4418495, “Entpd5 inhibitors” (2012):
Calls of active or inactive are those of the source. The rule behind the calls is not given here.

What was measured:
[1] = molecular target: T1, Nucleoside diphosphate phosphatase ENTPD5 (Homo sapiens) (UniProt O75356); experiment: Inhibition of human recombinant ENTPD5 expressed in insect cells assessed as reduction in UDP hydrolysis at 1 uM incubated for 1 hr in presence of UMP, GTP and ATP by Escherichia coli UMP kinase pyrH catalyzed UMP phosphorylation coupled luciferase assay
T1 sequence (whole entry): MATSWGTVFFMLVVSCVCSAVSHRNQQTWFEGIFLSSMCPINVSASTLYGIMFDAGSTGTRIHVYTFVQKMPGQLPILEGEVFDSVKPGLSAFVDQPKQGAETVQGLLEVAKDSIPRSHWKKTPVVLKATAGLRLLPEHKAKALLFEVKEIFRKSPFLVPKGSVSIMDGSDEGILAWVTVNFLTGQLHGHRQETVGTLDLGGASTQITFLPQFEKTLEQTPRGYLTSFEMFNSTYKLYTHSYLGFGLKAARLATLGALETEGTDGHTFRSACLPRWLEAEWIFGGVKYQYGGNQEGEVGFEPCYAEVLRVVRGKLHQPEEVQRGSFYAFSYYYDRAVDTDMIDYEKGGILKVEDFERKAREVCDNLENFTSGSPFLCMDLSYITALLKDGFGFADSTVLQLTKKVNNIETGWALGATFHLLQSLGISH

[2] = molecular target: T1, Nucleoside diphosphate phosphatase ENTPD5 (Homo sapiens); experiment: Inhibition of human recombinant ENTPD5 expressed in insect cells assessed as reduction in UDP hydrolysis up to 10 uM incubated for 1 hr in presence of UMP, GTP and ATP by Escherichia coli UMP kinase pyrH catalyzed UMP phosphorylation coupled luciferase assay
[3] = molecular target: T2, Uridylate kinase (Escherichia coli (strain K12)) (UniProt P0A7E9); experiment: Inhibition of recombinant Escherichia coli UMP kinase pyrH catalyzed UMP phosphorylation in presence of GTP and ATP incubated for 1 hr by luminescence based assay
T2 sequence (whole entry): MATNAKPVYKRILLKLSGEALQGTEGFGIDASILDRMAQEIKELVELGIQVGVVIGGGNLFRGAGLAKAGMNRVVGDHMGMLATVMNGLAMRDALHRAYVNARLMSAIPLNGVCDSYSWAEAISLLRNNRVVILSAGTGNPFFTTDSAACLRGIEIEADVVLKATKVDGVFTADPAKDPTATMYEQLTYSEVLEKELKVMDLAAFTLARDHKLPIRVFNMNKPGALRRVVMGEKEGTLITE

[4] = molecular target: T1, Nucleoside diphosphate phosphatase ENTPD5 (Homo sapiens); experiment: Inhibition of human recombinant ENTPD5 expressed in insect cells assessed as reduction in reduction in UDP hydrolysis by measuring inorganic phosphate release incubated for 1 hr by malachite green based assay

Row | Compound | inhibition [1] | inhibition [2] | inhibition [3] | inhibition [4]
1 | O=C1NC(=O)N(c2ccc(Br)cc2)C(=O)/C1=C/c1c[nH]c2ccccc12 | Active | Dose-dependent effect | inactive | Active
2 | COc1cccc(NC(=S)Nc2ccc3nc(-c4ccco4)c(-c4ccco4)nc3c2)c1 | Active | Dose-dependent effect | inactive | Active
3 | O=C1NC(=O)C(=Cc2cn(-c3ccccc3)nc2-c2ccc(F)cc2)C(=O)N1 | Active | Dose-dependent effect | inactive | Active
4 | Cc1ccc(/C=C/C(=O)Nc2nc3ccc(Cl)cc3s2)o1 | Active | Dose-dependent effect | inactive | Active
5 | O=C(Cn1cc(/C=C2\C(=O)NC(=O)N(Cc3ccccc3)C2=O)c2ccccc21)NCc1ccccc1 | Active | Dose-dependent effect | inactive | Active
6 | O=C(c1ccc(C(F)(F)F)cc1)N(CCc1csc2nc(-c3ccc4ccccc4c3)cn12)Cc1ccco1 | Active | Dose-dependent effect | inactive | Active
7 | O=C1S/C(=C/c2ccco2)C(=O)N1c1ccc(Cl)cc1 | Active | Dose-dependent effect | inactive | Active
8 | O=C1NC(=S)N(c2ccc(Cl)cc2)C(=O)/C1=C\c1ccc(-c2ccccc2C(=O)O)o1 | Active | Dose-dependent effect | inactive | Active
9 | N#CC1=C(N)n2c(s/c(=C\c3cc(Br)ccc3O)c2=O)=C(C#N)C1c1cc(Br)ccc1O (configuration not stated) | Active | Dose-dependent effect | inactive | Active
10 | O=S(=O)(Nc1ccccc1F)c1ccc2c(c1)[C@@H]1C=CC[C@@H]1[C@@H](c1ccc(F)cc1)N2 | Active | Dose-dependent effect | inactive | Active
11 | COc1ccc(C(c2cc(C(C)(C)C)c(O)c(C(C)(C)C)c2)N2CCOCC2)cc1 (configuration not stated) | Active | Dose-dependent effect | inactive | Active
12 | O=C1C=C/C(=C\NNc2nc(-c3ccccc3)c(CC(=O)O)s2)C(O)=C1 | Active | Dose-dependent effect | inactive | Active
13 | NC(=O)c1cc2cc(Br)ccc2o/c1=N\c1cc(C(F)(F)F)ccc1N1CCCCC1 | Active | Dose-dependent effect | inactive | Active
14 | Cc1ccc(-c2cc(C(F)(F)F)c3c(N)c(C(=O)c4ccc5c(c4)OCO5)sc3c2)s1 | Active | Dose-dependent effect | inactive | Active
15 | O=C1/C(=C\C=C\c2ccco2)SC(=S)N1Cc1ccccc1 | Active | Dose-dependent effect | inactive | Active
16 | O=C1NC(=O)N(c2ccc(Cl)cc2)C(=O)/C1=C/c1cnn(-c2ccccc2)c1 | Active | Dose-dependent effect | inactive | Active
17 | O=C1C=CC(Br)=C/C1=C/NNC(=O)c1cc2ccccc2cc1O | Active | Dose-dependent effect | inactive | Active

Row | Compound | inhibition [1] | inhibition [2] | inhibition [3] | inhibition [4]
18 | Nc1nc(SCc2nnc(Nc3ccccc3)s2)nc2sc3c(c12)CCC3 | Active | Dose-dependent effect | inactive | Active
19 | Cc1ccc(-c2csc3nc(SCc4c(C)noc4C)n(-c4ccccc4)c(=O)c23)o1 | Active | Dose-dependent effect | inactive | Active
20 | O=C1NC(=O)N(Cc2ccco2)C(=O)/C1=C\c1ccc(-c2ccc(Cl)c([N+](=O)[O-])c2)o1 | Active | Dose-dependent effect | inactive | Active
21 | COc1ccc(N2C(=O)/C(=C/c3cccn3-c3ccc(Br)cc3)C(=O)NC2=S)cc1 | Active | Dose-dependent effect | inactive | Active
22 | COc1cc(-c2ccc(/C=C3\SC(=N)N(c4nccs4)C3=O)o2)c(OC)cc1Cl | Active | Dose-dependent effect | inactive | Active
23 | O=C1/C(=C/c2cc([N+](=O)[O-])cc(Br)c2O)SC(=S)N1c1ccc([N+](=O)[O-])cc1 | Active | Dose-dependent effect | inactive | Active
24 | O=C1c2c(O)cccc2Cc2cccc(O)c21 | Active | Dose-dependent effect | inactive | Active
25 | COc1ccc(OC)c(-c2cn3c(CCN(Cc4ccco4)S(=O)(=O)c4ccc5ccccc5c4)csc3n2)c1 | Active | Dose-dependent effect | inactive | Active
26 | O=C(CCl)N(CC(=O)N1c2ccccc2-n2cccc2C1c1ccc(Cl)cc1)C1CC1 (configuration not stated) | Active | Dose-dependent effect | inactive | Active
27 | CCN(CC)c1ccc2cc(C(N)=O)/c(=N/c3cccc4ccccc34)oc2c1 | Active | Dose-dependent effect | inactive | Active
28 | Cc1ccc(C)c(-c2nn(-c3ccccc3)cc2C=C2C(=O)NC(=O)NC2=O)c1 | Active | Dose-dependent effect | inactive | Active
29 | O=C(Nc1c[nH]c(=O)[nH]c1=O)c1cccc(N2C(=O)c3ccc([N+](=O)[O-])cc3C2=O)c1 | Active | Dose-dependent effect | inactive | Active
30 | O=C1N=C(Nc2cccc(Cl)c2Cl)S/C1=C/c1ccc(OCc2ccc(C(=O)O)cc2)c(Br)c1 | Active | Dose-dependent effect | inactive | Active
31 | O=C1C=CC(=O)c2c1ccc1c2ccc2ccccc21 | Active | Dose-dependent effect | inactive | Active
32 | CC(=O)c1ccc(-c2ccc(C=C3C(=O)N(C)C(=S)N(C)C3=O)o2)cc1 | Active | Dose-dependent effect | inactive | Active
33 | Cc1nn2cc(-c3ccccc3)cc2c2c(C)n(C)c(C)c12 | Active | Dose-dependent effect | inactive | Active
